Data published in ChEMBL document CHEMBL1201862, “PubChem BioAssay data set” (2004).
Activity calls are given as the source filed them.

Legend:
[1] = target: FAD-linked sulfhydryl oxidase ALR (Homo sapiens, UniProt P55789); assay: inhibitors of human ALR sulfhydryl oxidase, dose response, biochemical, H2O2 detection, luminescence, cherry-pick (AID 493248)
[2] = system: H9c2; assay: cells; format: functional, cell-based; settings: Rattus norvegicus, H9c2, Myocardium;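 note: confirmatory concentration-response retest of ultra-high-throughput screening hits for modulation of myocardial damage; cell death induced by hydrogen peroxide oxidative stress; compound pretreatment for 60 min then peroxide exposure for 2 h; potency is for protecting the cells against peroxide damage rather than for killing them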
[3] = system: Vero; assay: cells; format: functional; settings: Chlorocebus sabaeus
[4] = cytotoxicity toward DRD oncogenic fibroblasts, dose response, cell-based, non-viral oncogenic, luminescence (AID 1934); format: functional; settings: Homo sapiens
[5] = Luminescence Cell-Based Dose Response HTS to Identify Inhibitors of 5'UTR Stem-Loop Driven Prion Protein mRNA Translation in H4 Neuroglioblastoma Cells. [Related pubchem assays: 1827 (Project Summary), 1813 (Primary HTS)]; format: functional
[6] = system: BJ; assay: cytotoxicity toward BJ-TERT-LT-ST fibroblasts, dose response, cell-based, RAS-independent, luminescence (AID 1935); format: functional; settings: Homo sapiens;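 note: BJ fibroblasts immortalized with TERT plus LT and ST oncogenes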
[7] = system: BJ; assay: cells; format: functional, cell-based; settings: Homo sapiens
[8] = inhibitors of firefly luciferase expression or activity, dose response, H4 neuroglioma cells, luminescence (AID 1990); format: functional, cell-based
[9] = target: T1, Rac GTPase-activating protein 1 (Homo sapiens, UniProt Q9H0H5); assay: MgcRacGAP GTPase-activating activity inhibitors, confirmation, biochemical, ADP Hunter fluorescence, primary and confirmatory (AID 624330); format: functional
T1 sequence (Q9H0H5 whole entry): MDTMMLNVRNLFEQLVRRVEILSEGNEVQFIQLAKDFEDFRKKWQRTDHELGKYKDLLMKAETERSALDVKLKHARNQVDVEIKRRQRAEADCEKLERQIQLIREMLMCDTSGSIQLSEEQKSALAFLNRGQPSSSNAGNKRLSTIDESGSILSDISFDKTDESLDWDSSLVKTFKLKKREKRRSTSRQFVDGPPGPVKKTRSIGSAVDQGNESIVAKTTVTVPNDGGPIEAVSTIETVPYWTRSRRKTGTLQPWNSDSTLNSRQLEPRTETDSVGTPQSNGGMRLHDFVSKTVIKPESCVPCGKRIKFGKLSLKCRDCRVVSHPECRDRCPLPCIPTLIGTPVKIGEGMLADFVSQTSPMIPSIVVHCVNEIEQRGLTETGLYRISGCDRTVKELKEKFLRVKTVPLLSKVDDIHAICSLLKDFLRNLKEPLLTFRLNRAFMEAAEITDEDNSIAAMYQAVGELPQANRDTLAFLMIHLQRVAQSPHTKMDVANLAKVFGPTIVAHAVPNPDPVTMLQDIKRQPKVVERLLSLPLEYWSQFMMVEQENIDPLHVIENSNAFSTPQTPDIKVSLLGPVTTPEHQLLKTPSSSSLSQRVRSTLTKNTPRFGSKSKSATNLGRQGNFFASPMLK

[10] = target: Large T antigen (Simian virus 40, UniProt P03070); format: functional, Betapolyomavirus macacae;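 note: Confirmatory-stage PubChem screen for compounds that inhibit SV40 T antigen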
Chain of Large T antigen (P03070 whole entry): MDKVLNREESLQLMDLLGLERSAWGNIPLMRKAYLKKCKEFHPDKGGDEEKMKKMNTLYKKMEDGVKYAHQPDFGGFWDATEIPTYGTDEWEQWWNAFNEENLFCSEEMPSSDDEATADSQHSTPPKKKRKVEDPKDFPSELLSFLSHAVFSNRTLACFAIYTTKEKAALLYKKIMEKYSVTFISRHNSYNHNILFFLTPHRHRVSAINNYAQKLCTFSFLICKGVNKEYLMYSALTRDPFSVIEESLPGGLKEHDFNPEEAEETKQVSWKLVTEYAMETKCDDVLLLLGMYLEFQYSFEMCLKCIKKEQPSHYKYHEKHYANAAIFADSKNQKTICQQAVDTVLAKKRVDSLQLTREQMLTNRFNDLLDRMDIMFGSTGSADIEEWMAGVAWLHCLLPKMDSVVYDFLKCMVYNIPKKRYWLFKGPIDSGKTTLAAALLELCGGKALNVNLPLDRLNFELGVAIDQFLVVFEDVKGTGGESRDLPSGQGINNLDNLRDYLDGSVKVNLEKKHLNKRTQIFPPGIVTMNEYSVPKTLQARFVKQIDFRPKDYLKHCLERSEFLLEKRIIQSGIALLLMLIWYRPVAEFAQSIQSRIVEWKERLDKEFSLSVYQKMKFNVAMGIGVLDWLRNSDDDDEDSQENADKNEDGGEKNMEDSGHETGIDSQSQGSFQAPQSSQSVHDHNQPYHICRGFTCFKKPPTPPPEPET

[11] = system: Streptococcus sp. 'group A'; assay: growth inhibition of control SK(-) GAS strain, dose response, counter-screen for streptokinase expression inhibitor project, luminescence, kanamycin, BacTiterGlo, confirmation (AID 1900); format: functional, organism-based
[12] = target: T2, Streptokinase A (Streptococcus pyogenes serotype M1, UniProt P10520); assay: S. pyogenes streptokinase expression inhibitors, potency, dose response, plasminogen activation absorbance, OD405 (AID 1914); format: functional, Streptococcus pyogenes M1 GAS;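 note: secreted streptokinase activity via plasminogen activation per viability signal from cell pellet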
T2 sequence (P10520 whole entry): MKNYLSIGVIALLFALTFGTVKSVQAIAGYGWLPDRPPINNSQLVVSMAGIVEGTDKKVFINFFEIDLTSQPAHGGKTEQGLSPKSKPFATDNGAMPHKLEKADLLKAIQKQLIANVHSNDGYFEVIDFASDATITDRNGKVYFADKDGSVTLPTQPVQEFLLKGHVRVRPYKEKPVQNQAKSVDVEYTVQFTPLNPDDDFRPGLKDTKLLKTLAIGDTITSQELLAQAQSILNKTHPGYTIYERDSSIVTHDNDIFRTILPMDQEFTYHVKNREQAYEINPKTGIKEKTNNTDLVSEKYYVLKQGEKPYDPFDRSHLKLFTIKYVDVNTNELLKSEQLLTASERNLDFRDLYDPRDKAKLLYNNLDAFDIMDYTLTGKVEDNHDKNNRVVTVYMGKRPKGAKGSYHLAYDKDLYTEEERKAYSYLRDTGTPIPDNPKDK

[13] = system: Streptococcus; assay: Group A Streptococcus viability loss, dose response, counter-screen for streptokinase expression inhibitor project, luminescence, BacTiterGlo (AID 1915); format: functional, organism-based;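 note: potency for reduction of bacterial viability or growth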
[14] = system: BJ; assay: cytotoxicity toward BJ-TERT fibroblasts, dose response, cell-based, RAS-independent, luminescence (AID 1933); format: functional; settings: Homo sapiens
[15] = inhibitors of intracellular T. cruzi replication, confirmation, NIH3T3 host cells, beta-gal luminescence (AID 2044); format: functional, cell-based;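 note: intracellular parasites grown in NIH/3T3 mouse fibroblasts as host cells; luminescent beta-galactosidase reporter signal from transgenic T. cruzi replicating inside host cells; inhibitors lower the luminescence signal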
[16] = cytotoxicity toward NIH3T3 fibroblasts, dose response, counter-screen, cell-based, ATP luminescence, mouse fibroblasts (AID 2010); format: functional;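 note: cells exposed to compound for about 90 hours before reading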
[17] = THP-1 cell cytotoxicity, dose response, cytotoxicity control for non-replicating M. tuberculosis project (AID 489025); format: functional
[18] = cells; format: functional
[19] = Vero E6 cell cytotoxicity, dose response, cytotoxicity control for non-replicating M. tuberculosis project, secondary assay (AID 492998); format: functional, VeroE6; settings: Vero C1008
[20] = target: Cytochrome P450 2C19 (Homo sapiens, UniProt P33261); assay: Cytochrome panel assay with activity outcomes. Panel member name: p450-cyp2c19 Compounds with AC50 equal or less than 10 uM are considered active; format: functional; settings: read-out: AC50
Chain of Cytochrome P450 2C19 (P33261 whole entry): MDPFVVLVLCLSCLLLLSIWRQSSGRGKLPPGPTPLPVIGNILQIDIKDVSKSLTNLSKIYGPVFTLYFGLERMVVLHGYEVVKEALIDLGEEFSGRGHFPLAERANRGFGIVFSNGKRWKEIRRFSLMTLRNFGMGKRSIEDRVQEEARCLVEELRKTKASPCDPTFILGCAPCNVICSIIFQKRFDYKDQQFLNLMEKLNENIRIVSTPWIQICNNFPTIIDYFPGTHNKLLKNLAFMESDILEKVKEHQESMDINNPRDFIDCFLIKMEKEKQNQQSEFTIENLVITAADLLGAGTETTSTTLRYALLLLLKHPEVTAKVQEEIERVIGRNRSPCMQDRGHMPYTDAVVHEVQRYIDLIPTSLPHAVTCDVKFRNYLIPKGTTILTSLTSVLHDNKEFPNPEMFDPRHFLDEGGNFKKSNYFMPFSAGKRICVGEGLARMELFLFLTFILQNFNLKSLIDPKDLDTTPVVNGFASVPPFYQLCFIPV

[21] = target: Cytochrome P450 2C9 (Homo sapiens, UniProt P11712)
Chain of Cytochrome P450 2C9 (P11712 whole entry): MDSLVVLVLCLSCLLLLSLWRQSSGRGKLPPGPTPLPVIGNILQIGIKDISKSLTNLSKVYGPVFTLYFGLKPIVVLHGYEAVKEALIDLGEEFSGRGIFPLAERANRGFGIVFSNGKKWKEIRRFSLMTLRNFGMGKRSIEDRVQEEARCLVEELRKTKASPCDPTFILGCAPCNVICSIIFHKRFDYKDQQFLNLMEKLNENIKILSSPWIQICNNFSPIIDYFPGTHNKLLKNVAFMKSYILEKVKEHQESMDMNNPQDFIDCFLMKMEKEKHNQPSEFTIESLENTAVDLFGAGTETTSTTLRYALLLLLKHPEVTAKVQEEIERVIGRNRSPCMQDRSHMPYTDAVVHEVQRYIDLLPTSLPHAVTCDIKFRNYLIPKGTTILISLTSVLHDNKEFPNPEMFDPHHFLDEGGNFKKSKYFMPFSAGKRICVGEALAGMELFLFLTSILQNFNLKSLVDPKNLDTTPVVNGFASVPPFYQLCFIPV

[22] = target: Cytochrome P450 2D6 (Homo sapiens, UniProt P10635);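 note: CYP2D6 member of a cytochrome P450 panel assay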
Chain of Cytochrome P450 2D6 (P10635 whole entry): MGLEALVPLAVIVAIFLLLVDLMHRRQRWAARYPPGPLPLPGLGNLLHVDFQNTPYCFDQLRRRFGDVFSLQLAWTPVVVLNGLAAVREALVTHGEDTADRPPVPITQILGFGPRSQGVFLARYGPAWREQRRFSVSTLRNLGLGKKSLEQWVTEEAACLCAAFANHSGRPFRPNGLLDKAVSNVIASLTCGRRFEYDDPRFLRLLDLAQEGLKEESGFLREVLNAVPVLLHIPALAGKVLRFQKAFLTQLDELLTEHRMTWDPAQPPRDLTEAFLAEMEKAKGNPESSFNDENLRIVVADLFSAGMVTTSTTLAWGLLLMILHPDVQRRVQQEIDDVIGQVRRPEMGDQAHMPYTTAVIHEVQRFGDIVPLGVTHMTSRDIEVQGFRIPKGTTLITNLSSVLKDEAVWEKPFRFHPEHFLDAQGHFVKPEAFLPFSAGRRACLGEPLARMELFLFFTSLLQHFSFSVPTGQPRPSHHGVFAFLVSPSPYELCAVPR

[23] = target: T3, Histone-lysine N-methyltransferase NSD2 (Homo sapiens, UniProt O96028); format: biochemical
T3 sequence (O96028 whole entry): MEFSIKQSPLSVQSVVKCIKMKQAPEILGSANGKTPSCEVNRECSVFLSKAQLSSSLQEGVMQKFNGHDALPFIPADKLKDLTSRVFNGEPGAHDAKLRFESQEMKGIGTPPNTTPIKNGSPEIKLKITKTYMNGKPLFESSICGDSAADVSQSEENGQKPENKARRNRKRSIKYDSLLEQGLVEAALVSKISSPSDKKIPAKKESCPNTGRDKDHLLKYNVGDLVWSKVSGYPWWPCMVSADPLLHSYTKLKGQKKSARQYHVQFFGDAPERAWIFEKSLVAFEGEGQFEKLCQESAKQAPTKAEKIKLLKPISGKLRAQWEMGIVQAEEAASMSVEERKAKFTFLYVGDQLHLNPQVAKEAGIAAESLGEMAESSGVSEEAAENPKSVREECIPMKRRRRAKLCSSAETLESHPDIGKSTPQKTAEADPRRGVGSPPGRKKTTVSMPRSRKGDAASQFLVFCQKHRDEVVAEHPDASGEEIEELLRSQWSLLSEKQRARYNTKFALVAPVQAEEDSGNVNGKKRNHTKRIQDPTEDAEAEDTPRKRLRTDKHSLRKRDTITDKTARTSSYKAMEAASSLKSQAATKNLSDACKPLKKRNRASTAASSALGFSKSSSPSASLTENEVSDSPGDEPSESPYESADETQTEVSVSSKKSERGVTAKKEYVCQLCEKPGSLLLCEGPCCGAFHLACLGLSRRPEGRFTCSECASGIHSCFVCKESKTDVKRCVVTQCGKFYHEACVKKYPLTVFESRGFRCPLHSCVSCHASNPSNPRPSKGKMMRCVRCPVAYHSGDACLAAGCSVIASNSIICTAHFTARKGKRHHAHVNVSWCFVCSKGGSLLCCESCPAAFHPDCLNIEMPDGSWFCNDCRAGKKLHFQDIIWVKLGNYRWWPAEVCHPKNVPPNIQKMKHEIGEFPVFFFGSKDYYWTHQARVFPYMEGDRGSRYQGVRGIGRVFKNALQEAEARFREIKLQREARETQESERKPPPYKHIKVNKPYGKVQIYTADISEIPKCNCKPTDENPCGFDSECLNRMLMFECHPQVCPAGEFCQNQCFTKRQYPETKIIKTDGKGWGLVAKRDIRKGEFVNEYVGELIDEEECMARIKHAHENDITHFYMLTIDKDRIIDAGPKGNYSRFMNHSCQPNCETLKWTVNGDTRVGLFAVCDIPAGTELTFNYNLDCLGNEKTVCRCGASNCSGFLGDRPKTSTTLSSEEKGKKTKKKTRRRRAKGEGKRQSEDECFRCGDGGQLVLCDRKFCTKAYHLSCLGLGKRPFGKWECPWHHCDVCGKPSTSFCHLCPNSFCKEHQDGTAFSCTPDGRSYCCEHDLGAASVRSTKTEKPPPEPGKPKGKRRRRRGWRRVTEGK

[24] = target: Luciferin 4-monooxygenase (Photinus pyralis, UniProt P08659); assay: firefly luciferase enzyme inhibitors, dose response, biochemical, luminescence (AID 1891)
Chain of Luciferin 4-monooxygenase (P08659 whole entry): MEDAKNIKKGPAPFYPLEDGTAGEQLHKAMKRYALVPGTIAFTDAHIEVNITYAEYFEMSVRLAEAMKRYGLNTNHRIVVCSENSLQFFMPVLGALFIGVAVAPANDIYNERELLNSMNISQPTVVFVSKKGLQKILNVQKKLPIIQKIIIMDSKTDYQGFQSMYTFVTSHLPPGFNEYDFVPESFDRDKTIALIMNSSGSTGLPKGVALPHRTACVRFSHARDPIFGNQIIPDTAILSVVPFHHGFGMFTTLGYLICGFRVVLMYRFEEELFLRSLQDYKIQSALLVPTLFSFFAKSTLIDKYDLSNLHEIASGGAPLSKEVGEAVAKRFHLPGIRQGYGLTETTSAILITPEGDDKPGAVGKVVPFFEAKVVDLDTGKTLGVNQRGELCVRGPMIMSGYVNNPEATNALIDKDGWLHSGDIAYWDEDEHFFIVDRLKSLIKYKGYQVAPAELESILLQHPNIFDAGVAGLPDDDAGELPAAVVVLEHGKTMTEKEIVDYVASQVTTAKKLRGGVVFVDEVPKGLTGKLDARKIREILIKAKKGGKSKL

[25] = Luminescence Cell-Based Dose Confirmation HTS to Identify Inhibitors of Platelet Dense Granule Release. [Related pubchem assays: 1663 (Primary HTS), 1678 (Summary of Project)]; format: functional
[26] = NIH-3T3 fibroblast cytotoxicity, dose response, cytotoxicity control, cell-based, fluorescence, Alamar Blue, secondary assay (AID 2327); format: functional;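 note: NIH-3T3 mouse fibroblasts cultured with fluconazole at 8 µg/mL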

Chain of FAD-linked sulfhydryl oxidase ALR (P55789 whole entry): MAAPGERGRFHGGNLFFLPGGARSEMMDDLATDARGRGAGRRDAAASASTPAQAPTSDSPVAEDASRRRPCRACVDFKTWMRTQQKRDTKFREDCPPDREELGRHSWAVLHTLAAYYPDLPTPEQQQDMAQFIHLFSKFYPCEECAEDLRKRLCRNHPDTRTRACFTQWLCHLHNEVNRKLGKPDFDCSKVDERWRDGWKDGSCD

Cc1cc(Oc2ncccc2[N+](=O)[O-])c2cc(Cl)ccc2n1
AC50 [1]: 0.409 µM (active)

Oc1nc(N2CCN(c3ccccc3)CC2)nc2c1CCCC2
IC50 [2]: > 79 µM (inactive)

COc1cccc(NC(=O)c2oc3ccc(S(=O)(=O)N4CCOCC4)cc3c2C)c1
IC50 [2]: > 79 µM (inactive)

O=C(N/N=C/c1ccc(Cl)cc1)c1[nH]nc2c1CCCC2
CC50 [3]: 2.59 µM (active)
EC50 [4]: 0.657 µM (active)
EC50 [5]: > 120 µM (not active)
EC50 [6]: 0.669 µM (active)
EC50 [7]: 39.2 µM (active)
EC50 [8]: 8.55 µM (inconclusive)

OC1CCN(c2c3c(nc4cc(-c5cccc(F)c5)nn24)CCCC3)CC1
IC50 [2]: > 79 µM (inactive)

Cc1ccn2c(NC3CCCC3)c(-c3ccncc3)nc2c1
AC50 [1]: 1.45 µM (active)
IC50 [9]: 55.3 µM (active)

Cc1ccc(OCCOC(=O)CCc2nc(O)c3ccccc3n2)cc1
IC50 [2]: 10.6 µM (active)

COc1ccc(NCc2cc3ccccc3nc2O)cc1
IC50 [2]: > 79 µM (inactive)
IC50 [9]: 94.7 µM (active)

COc1cc(/C=N/Nc2nc3ccccc3o2)cc(OC)c1O
IC50 [10]: 8.87 µM (active)
AC50 [1]: 0.025 µM (active)

O=C(NN/C=C1\C(=O)N(c2ccccc2Cl)C(=O)c2ccccc21)C1COc2ccccc2O1 (centres undefined)
IC50 [2]: 17.2 µM (active)
EC50 [11]: 6.64 µM (active)
EC50 [12]: > 150 µM (not active)
EC50 [13]: 7.4 µM (active)

COc1cc(OC)cc(C(=O)Nc2ccc(N3CCN(C(=O)c4cccs4)CC3)cc2)c1
EC50 [4]: 19.5 µM (active)
EC50 [14]: 14.9 µM (active)
EC50 [6]: > 150 µM (inconclusive)
EC50 [7]: 61.2 µM (active)

O=C(CC(C(=O)c1ccccc1)c1ccccc1)c1ccccc1 (centres undefined)
IC50 [2]: > 79 µM (inactive)

CNc1nc(N)c(C(=O)C(C)(C)C)s1
AC50 [1]: 4.57 µM (active)

CN(C)c1ccc(C2N(c3ccc(F)cc3)C(=O)C3CCCN32)cc1 (centres undefined)
AC50 [1]: 49.4 µM (active)

COc1cccc(Oc2cnc(N)nc2-c2ccc(OC)cc2O)c1
EC50 [4]: 10.9 µM (active)
EC50 [14]: 17.9 µM (inconclusive)
EC50 [6]: 67.1 µM (active)
EC50 [7]: 27.6 µM (active)

C/C(=N\Nc1cccc(Cl)c1)c1ccncc1
EC50 [15]: 1.42 µM (active)
AC50 [1]: 0.536 µM (active)
EC50 [16]: > 60 µM (not active)

C/C(=N\NC(=O)CCCNc1ccc(C)cc1)c1ccccn1
CC50 [17]: 13.1 µM (active)
IC50 [18]: 18.4 µM (active)
IC50 [2]: 13.6 µM (active)
CC50 [19]: 14.3 µM (active)

CCCCCCCCCCCCCCCC(=O)NC[C@@H](COP(=O)([O-])OCC[N+](C)(C)C)OCC
AC50 [20]: 39.8 µM (inconclusive)
AC50 [21]: inconclusive
AC50 [22]: 31.6 µM (inconclusive)

C/C(=N\Nc1nc2ccccc2nc1C)c1ccccc1O
CC50 [17]: > 40 µM (active)
IC50 [18]: 2.54 µM (active)
CC50 [19]: > 20 µM (active)

Cc1nc(-[n+]2nc(-c3ccncc3)nn2-c2ccccc2)sc1C
AC50 [23]: > 20 µM (inactive)

CC(OC(=O)c1cc(-c2cccnc2)nc2ccccc12)C(=O)Nc1ccc2ccccc2c1 (centres undefined)
IC50 [2]: > 79 µM (inactive)

O=[N+]([O-])c1ccc(Cl)c(/C=N/N2CCN(Cc3ccccc3)CC2)c1
AC50 [21]: inconclusive
AC50 [22]: 11.2 µM (inconclusive)

Nc1cc2sc(-c3ccc(C(=O)O)cc3)nc2cc1Cl
EC50 [24]: 0.441 µM (active)
EC50 [4]: 15.4 µM (active)
EC50 [14]: 20.4 µM (active)
EC50 [6]: > 150 µM (inconclusive)
EC50 [25]: 1.32 µM (active)
EC50 [7]: 17 µM (active)

CCOC(=O)c1oc2ccc(S(=O)(=O)n3nc(-c4ccc(Cl)cc4)cc3N)cc2c1C
CC50 [3]: > 25 µM (active)

CCn1c2ccccc2c2nc3cc(OC)c(OC)cc3nc21
IC50 [2]: > 79 µM (inactive)

COc1cc(/C=C(\C#N)c2nc3c(s2)CC(C)CC3)ccc1O (centres undefined)
AC50 [20]: 39.8 µM (inconclusive)
AC50 [21]: inconclusive
AC50 [22]: 28.2 µM (inconclusive)

Cc1ccc2c(c1)CCCN2CC(=O)N(C)c1c(N)n(Cc2ccccc2)c(=O)[nH]c1=O
AC50 [1]: 20 µM (active)

O=C(CN1C(=O)CCC1=O)NNc1ccc2ccccc2c1
EC50 [26]: 3.62 µM (active)
AC50 [1]: 0.09 µM (active)

CCNCCNc1ccc(Cl)cc1[N+](=O)[O-]
AC50 [23]: > 20 µM (inactive)
